Entries after “also recorded” stand apart in the source; their conditions may differ.
Test system: murine NASH model
Test: Murine NASH model (HFD, glucose/fructose drinking water, thermoneutral housing) treated with UCB9608
Assay type: in vivo, mice
Procedure: To model NASH in murine liver, male C57BL/6N mice were challenged with HFD for 24 weeks in conjunction with 18.9 g/L glucose&23.1 g/L fructose containing drinking water under thermoneutral housing condition (29°C) for 12 weeks before the administration of UCB9608 through HFD (15 mg/kg) for another 12 weeks. Then the mice were analysed in EcoMRI for body composition measurement before 6 hours fasting, followed by dissection to harvest liver and sample blood.
Total RNA was extracted from adipose depots, liver or in vitro cell cultures via Trizol reagent (Invitrogen) according to the manufacturer's instructions. Genomic DNA was removed from the crude RNA samples by DNase treatment (NEB BioLabs). For individual sample, 1 µg of total RNA was used to convert into cDNA library by using the High-Capacity cDNA Reverse transcription kit (Applied Biosystems, 4368813). Quantitative PCR was performed using KAPA SYBR FAST Universal kit (Roche, KK4618) on ViiA7 (Applied Biosystems) and the relative transcript levels were normalized to […] expression via ΔΔCt method. Table 2: Sequences of qPCR primers used in this study.
Plasma collected from mice under different conditions was used to determine levels of lipolysis and liver injury. FFA levels were measured via NEFA assay kit (Wako NEFA kit). TG levels were determined via TG assay kit (Roche Trig/GB reagent). ALT (MAK052, Sigma) and AST (MAK055, Sigma) assay kits were used to determine ALT and AST activity according to the manufacturer's instructions. The absorbance was monitored using Synergy Gen5 Platereader.
Weight of liver pieces (50-100 mg) was recorded before homogenization by 1 mL isopropanol per 50 mg tissue. The homogenates were incubated at room temperature with rotating before spinning down to remove debris at 2000×g for 10 min and collect supernatant. The TG levels were determined (Roche Trig/GB reagent) in Synergy Gen5 Platereader and normalized to the weight of liver pieces.
For NASH cohort, livers were dissected and fixed with 4% PFA in PBS for 24 h at 4°C. The samples were sent to the University of Zurich for histologic analyses. Briefly, liver tissues were dehydrated and embedded in paraffin and underwent section at 3 µm. The slides were stained with hematoxylin and eosin (H&E) and Gomori Green Trichrome directly or stained with anti-cleaved Caspase 3 after antigen retrieval. Afterwards, the images were captured by digital slide scanners and the grade of steatosis, ballooning, inflammation and fibrosis were quantified via the NASH Clinical Research Network Scoring System (Kleiner,D.E. et al. Hepatology 41, (2005)). To perform ORO staining, the fixed samples were sectioned, and the slides were stained via Oil Red O solution, followed by counter-staining with eosin. The images were acquired by digital slide scanners.

[1] = NASH mice, 12 weeks after administration of UCB9608
[2] = liver histology, NASH mice, UCB9608 vs vehicle

Compound: COc1ccc(NC(=O)N2CCN(c3nc(N)nc4c3cnn4C)[C@@H](C)C2)c(C)c1 [UCB9608]
- transcript levels of inflammatory markers (NASH livers, qPCR): mitigation
- fibrosis-related marker expression (NASH livers, qPCR, vs vehicle-treated control NASH mice): substantially ameliorated
- TG levels in the plasma [1]: reduction; also recorded: reduced
- lipolysis (plasma FFA levels) [1]: enhanced
- ALT activity in the plasma (NASH mice, UCB9608 12 weeks): reduction
- AST activity in the plasma (NASH mice, UCB9608 12 weeks): reduction
- hepatic TG levels (NASH mice, UCB9608 12 weeks): reduced
- liver mass/body weight ratio (NASH mice, UCB9608 12 weeks): reduced
- body weight (NASH mice, UCB9608 through HFD (15 mg/kg) for 12 weeks): significant loss
- fat mass (NASH mice, UCB9608 through HFD (15 mg/kg) for 12 weeks, EcoMRI): significant loss
- NAFLD activity score [2]: significantly lower
- fibrosis grade [2]: significantly lower
- inflammation levels [2]: significantly lower
- liver injury [2]: significantly lower
- steatosis grade [2]: significantly lower
- fatty acid oxidation (liver of NASH mice, UCB9608 12 weeks): significant elevation

— patent EP4623911A1, “PI4KB INHIBITORS FOR THE TREATMENT OF FATTY LIVER DISEASE” (ETH Zurich, priority 2024, dated 2025)
